Consider one compound from the NIST ThermoML archive (doi:10.1021/je9005097).

Numbers after ± are expanded uncertainties.

The conditions of data set [1]: Crystal; DTA.
Data set [2] can be described thus: Molar enthalpy of transition or fusion. The following applies: Crystal; DSC.

Regarding `Oc1cc(O)c2cc1Cc1cc(c(O)cc1O)Cc1cc(c(O)cc1O)Cc1cc(c(O)cc1O)C2`, the Normal melting temperature in data set [1] was 305.5 ± 1 °C. Moreover, the “Molar enthalpy of transition or fusion” value in data set [2] came to 38.2 ± 1.1 kJ/mol.
